The results in this text go back to patent publication US9968596B2 (Celgene Corporation, priority 2014, dated 2018).

pIC50: −log10 of the molar value. Where a name gives a salt, the structure may show the parent alone.

The assay deals with KG-1 cell line. Briefly: Effect of test compounds on KG-1 cell proliferation (Cell Titer-Glo viability, 72 hours). The class given is cell-based. The settings on record: Homo sapiens, read-out: FCA Prolif Cell TiterGlo KG-1 72 h (IC50). As for the experimental part:
The anti-proliferative activity of the test compound was evaluated on KG-1 cell line (American Type Culture Collection [ATCC]: catalogue number ATCC® CCL-246™) at 72 hours post-treatment. The seeding density for KG-1 was optimized to ensure assay linearity in 384-well plates.
Increasing concentrations of the test compound (0.5 nM to 10 μM) were spotted in a 10-point serial dilution fashion (3-fold dilution) in duplicate via an acoustic dispenser (EDC ATS-100) into an empty 384-well plate. The dimethyl sulfoxide (DMSO) concentration was kept constant for a final assay concentration of 0.1% DMSO. Prior to testing, KG-1 cells were grown in RPMI-1640 (Roswell Park Memorial Institute—1640) medium with 10% FBS (fetal bovine serum: HyClone) and expanded in culture flasks to provide sufficient amounts of starting material. Cells were then diluted to 5000 cells per well, in a 50 μL volume and added directly to the compound-spotted 384-well plates. Cells were allowed to grow for 72 hours in 5% CO2 at 37° C. At the time when exposure of cells to compound began (t0), initial viable cell number was assessed via Cell Titer-Glo® Luminescent Cell Viability Assay at a 1 vol:2 vol ratio according to manufacturer's instructions (Promega Corporation, Madison, Wis.) by quantifying the level of luminescence generated by adenosine-5′-triphosphate (ATP) present in viable cells. After 72 hours, cell viability of t-treated cells was assessed via Cell Titer-Glo® and read for luminescence.
For orientation: ATP-based viability assays read luminescence as a measure of living cells.
Usually pIC50 stands for the IC50 on a negative log10 scale, so that one unit is a factor of ten. On to `CC(C)Oc1ccc(C(F)(F)C(=O)NCc2ccc3c(c2)CN(C2CCC(=O)NC2=O)C3=O)cc1` (centres unmarked) [Example 22], for which the pIC50 was 7.30 to 8.00.
For the compound `CC(C)(F)c1ccc(C(F)(F)C(=O)NCc2ccc3c(c2)CN(C2CCC(=O)NC2=O)C3=O)cc1` (centres unmarked) [Example 92], the pIC50 is 7.00 to 7.30.
In the case of `Cn1nc(C(F)(F)C(=O)NCc2ccc3c(c2)CN(C2CCC(=O)NC2=O)C3=O)ccc1=O` (centres unmarked) [Example 107], the negative-log IC50 (pIC50) was 5.00 to 7.00.
On to `O=C1CCC(N2Cc3cc(CNC(=O)C(F)(F)c4c(F)cccc4F)ccc3C2=O)C(=O)N1` (centres unmarked) [Example 14], for which the pIC50 was 5.00 to 7.00.
In the case of `O=C1CCC(N2Cc3cc(CNC(=O)C(F)(F)c4ccccc4Cl)ccc3C2=O)C(=O)N1` (centres unmarked) [Example 8], the pIC50 was 5.00 to 7.00.
To `Nc1ncc(C(F)(F)C(=O)NCc2ccc3c(c2)CN(C2CCC(=O)NC2=O)C3=O)cn1` (centres unmarked) [Example 104] belongs 5.00 to 7.00; to `O=C1CCC(N2Cc3cc(CNC(=O)C(F)(F)c4ccc(F)cc4OC(F)(F)F)ccc3C2=O)C(=O)N1` (centres unmarked) [Example 100], 7.00 to 7.30.
Under `O=C1CCC(N2Cc3cc(CNC(=O)C(F)(F)C4(O)CCCC4)ccc3C2=O)C(=O)N1` (centres unmarked) [Example 66] stands 5.00 to 7.00; under `O=C1CCC(N2Cc3cc(CNC(=O)C(F)(F)c4ccc(F)cc4)ccc3C2=O)C(=O)N1` (centres unmarked) [Example 5], 7.30 to 8.00.
`CS(=O)(=O)c1cccc(C(F)(F)C(=O)NCc2ccc3c(c2)CN(C2CCC(=O)NC2=O)C3=O)c1` (centres unmarked) [Example 103]: the negative-log IC50 (pIC50) was 5.00 to 7.00.
To `O=C1CCC(N2Cc3cc(CNC(=O)C(F)(F)c4ccc(F)c(F)c4)ccc3C2=O)C(=O)N1` (centres unmarked) [Example 23] belongs 5.00 to 7.00; to `CN1CCN(c2cccc(C(F)(F)C(=O)NCc3ccc4c(c3)CN(C3CCC(=O)NC3=O)C4=O)c2)CC1` (centres unmarked) [Example 114, hydrochloride], 5.00 to 7.00; to `CC(C)(C)c1ccc(C(F)(F)C(=O)NCc2ccc3c(c2)CN(C2CCC(=O)NC2=O)C3=O)nc1` (centres unmarked) [Example 96, hydrochloride], 7.30 to 8.00.
Regarding `Cc1ccccc1C(F)(F)C(=O)NCc1ccc2c(c1)CN(C1CCC(=O)NC1=O)C2=O` (centres unmarked) [Example 15, N-((2-(2,6-dioxopiperidin-3-yl)-1-oxoisoindolin-5-yl)methyl)-2,2-difluoro-2-(o-tolyl)acetamide], the pIC50 was 7.30 to 8.00.
On to `O=C1CCC(N2Cc3cc(CNC(=O)C(F)(F)c4ccc(C5CC5)cn4)ccc3C2=O)C(=O)N1` (centres unmarked) [Example 97], for which the pIC50 was 5.00 to 7.00.
For the compound `COc1ccc(C(F)(F)C(=O)NCc2ccc3c(c2)CN(C2CCC(=O)NC2=O)C3=O)cc1` (centres unmarked) [Example 3], the negative logarithm of the IC50 (pIC50) is 5.00 to 7.00.
Regarding `O=C1CCC(N2Cc3cc(CNC(=O)C(F)(F)c4cccc(F)c4)ccc3C2=O)C(=O)N1` (centres unmarked) [Example 24], the pIC50 was 5.00 to 7.00.
